Data from publication PMC12115147, “Identification of 3-[(4-Acetylphenyl)(4-Phenylthiazol-2-Yl)Amino]Propanoic Acid Derivatives as Promising Scaffolds for the Development of Novel Anticancer Candidates Targeting SIRT2 and EGFR” (Pharmaceuticals, 2025).
Like-named read-outs stand apart in the source and are kept apart here.

Experiments:
[1] = tested on: A549 human lung adenocarcinoma cells; details: for A549 cell viability: 100 µM
Protocol: (§2) The dissolved compounds were then manually dispensed into deep 96-well plates, sealed, and stored at −80 °C until the day of the experiment. For the in vitro antiproliferative activity screening, the compounds were thawed at room temperature, protected from light, and the aliquots were diluted in complete cell culture media to achieve a final concentration of 100 µM and used for the in vitro assays.
(§3) All cells were cultivated in Dulbecco’s Modified Eagle Medium/Nutrient Mixture F-12 (DMEM/F-12) (Gibco, Waltham, MA, USA), 10% fetal bovine serum (FBS) (Gibco, Waltham, MA, USA), 100 U/mL penicillin, and 100 μg/mL streptomycin (P/S) (Gibco, Waltham, MA, USA). Culturing conditions were maintained at 37 °C with a humidified atmosphere containing 5% CO2. The culture medium was refreshed every 2–3 days, and cells were passaged upon reaching 70–80% confluence.
(§4) The in vitro inhibitory effects of the compounds were assessed using the MTT assay [40, 41, 42, 43, 44]. Briefly, cells were plated in 96-well plates at a density of 1 × 10^4 cells per well. After allowing the cells to adhere overnight at 37 °C in 5% CO2, they were treated with compounds at concentration of 100 µM in triplicate. Following a 20 h incubation, MTT reagent was added, and the cells were further incubated for 4 h. The resulting formazan was solubilized in anhydrous DMSO, and absorbance was measured at 570 nm using a microplate reader. Cell viability was calculated using the following formula: ([AE − AB]/[AC − AB]) × 100%, where AE, AC, and AB represent the absorbance values of experimental samples, untreated controls, and blank wells, respectively. Data analysis was performed using GraphPad Prism or QuickCalcs (2.0 version).
(§5) The IC50 values, defined as the concentration of compound required to reduce cell viability by 50%, were determined using a dose–response curve. The data were fitted to a nonlinear regression model (GraphPad Prism version 9.0, GraphPad Software, San Diego, CA, USA) to calculate the IC50 values for each compound tested in triplicate.

[2] = tested on: HEK293 human embryonic kidney cells; assay: MTT cytotoxicity in non-cancerous HEK293 cells; type: cell-based; details: 24 h
Protocol: as §3, §4, §5

[3] = tested on: A549 human lung adenocarcinoma cells; assay: cells; details: A549, 24 h; for viability at 100 µM: read-out: A549 cell viability
Protocol: as §2, §3, §4, §5

[4] = tested on: H69 human lung carcinoma cells; assay: MTT cell viability assay in H69 cells; type: cell-based; details: NCI-H69, 24 h, normalized to untreated control
[5] = tested on: H69AR cells; assay: MTT cell viability assay in anthracycline-resistant H69AR cells; type: cell-based; details: Homo sapiens, 24 h, normalized to untreated control
[6] = tested on: A549 agarose-based spheroids; assay: LDH release cytotoxicity assay in A549 3D spheroids; type: cell-based, human; details: 100 µM, 24 h
Protocol: (§1) A549 tumor spheroids were generated using an agarose-based technique with modifications. A549 cells were plated at a density of 2.5 × 10^5 cells/well in 96-well plates pre-coated with 50 µL of 1% agarose in Dulbecco’s Phosphate-Buffered Saline (DPBS). The plates were incubated for 48 h to allow spheroid formation. After 48 h, the spheroids were treated with 100 µM of compounds dissolved in DMEM/F12 supplemented with 10% FBS and 0.25% DMSO for 24 h.
A549 tumor spheroids were generated in 96-well plates pre-coated with 50 µL of 1% agarose in Dulbecco’s Phosphate-Buffered Saline (DPBS), as described previously. After 48 h of spheroid formation, the spheroids were treated with compounds dissolved in DMEM/F12 supplemented with 10% FBS and 0.25% DMSO. After a 24 h incubation, spheroid-conditioned media were collected by centrifuging the plates at 1000× g for 2 min to remove the spheroids. Then, 50 µL of the supernatant was transferred to a new 96-well plate and mixed with LDH assay reagent (Pierce LDH Cytotoxicity Assay Kit, Thermo Fisher Scientific, Waltham, MA, USA) according to the manufacturer’s instructions. A commercial maximum LDH control was used to normalize the results. The percentage of LDH release was calculated based on the absorbance readings, using the formula: (sample absorbance − blank absorbance)/(maximum control absorbance − blank absorbance) × 100%.

[7] = tested on: A549 agarose-based spheroids; assay: AO/PI staining of A549 spheroids; type: cell-based, human; details: 100 µM, 24 h
Protocol: as §1
After treatment with compounds, spheroids were incubated with 5 µg/mL acridine orange and 5 µg/mL propidium iodide for 30 min at 37 °C in a humidified incubator. Following incubation, the spheroids were washed twice with DPBS to remove excess stain. The stained spheroids were then visualized using the EVOS cell imaging system (Thermo Fisher Scientific, Waltham, MA, USA). The fluorescent images were captured, and the viability of the spheroids was assessed based on the differential staining patterns, with live cells showing green fluorescence (acridine orange) and dead cells displaying red fluorescence (propidium iodide).

IC50 [3] [µM] | Molecule | viability at 100 µM [3] [%] | IC50 ([2]; Homo sapiens) [µM] | other results
 | 3,3′-{[(Phenylmethylene)bis(4-phenylthiazole-2,5-diyl)]bis[(4-acetylphenyl)azanediyl]}dipropionic acid [Compound 13] |  |  | A549 cell viability [1]: 57.6%
 | N.N.[Cl][Pt][Cl] [CP, cisplatin, reference compound] |  |  | IC50 [2]: 5.57 µM; IC50 ([1]; A549 cells, 24 h, MTT): 11.7 µM
 | CC(=O)c1ccc(N(CCC(=O)O)c2nc(-c3ccccc3)c(C(c3ccc(F)cc3)c3sc(N(CCC(=O)O)c4ccc(C(C)=O)cc4)nc3-c3ccccc3)s2)cc1 [Compound 14, 3,3′-/{[(4-Fluorophenyl)methylene]bis(4-phenylthiazole-5,2-diyl)}bis[(4 acetylphenyl)azanediyl]/dipropionic acid] | 47.8 |  | 
5.42 | C/C(=N/O)c1ccc(N(CCC(=O)O)c2nc(-c3ccccc3)cs2)cc1 [Compound 21, 3-/{4-[1-(Hydroxyimino)ethyl]phenyl}(4-phenylthiazol-2-yl)amino/propanoic acid] | 35.3 | 14.6 | viability at 100 µM [4]: 18.3%; viability at 100 µM [5]: 23.5%; LDH release (cytotoxicity) [6]: 66.7%; spheroid morphology and cell viability by AO/PI staining [7]: partial cell death
2.47 | C/C(=N/O)c1ccc(N(CCC(=O)O)c2nc(-c3ccc(Cl)cc3)cs2)cc1 [Compound 22, 3-/[4-(4-Chlorophenyl)thiazol-2-yl]{4-[1-(hydroxyimino)ethyl]phenyl}amino/propanoic acid] | 37.6 | 38 | viability at 100 µM [4]: 33.9%; viability at 100 µM [5]: 26.6%; LDH release (cytotoxicity) [6]: 40.6%; spheroid morphology and cell viability by AO/PI staining [7]: partial cell death
 | COC(=O)CCN(c1ccc(/C(C)=N\O)cc1)c1nc(-c2ccccc2)cs1 [Compound 23, Methyl 3-/{4-[1-(hydroxyimino)ethyl]phenyl}(4-phenylthiazol-2-yl)amino/propanoate] | 41.9 |  | 
 | COC(=O)CCN(c1ccc(/C(C)=N\O)cc1)c1nc(-c2ccc(Cl)cc2)cs1 [Compound 24, Methyl 3-/[4-(4-chlorophenyl)thiazol-2-yl]{4-[1-(hydroxyimino)ethyl]phenyl}amino/propanoate] | 77.7 |  | 
8.05 | C/C(=N/O)c1ccc(N(CCC(=O)NN)c2nc(-c3ccccc3)cs2)cc1 [Compound 25, 3-/{4-[1-(Hydroxyimino)ethyl]phenyl}(4-phenylthiazol-2-yl)amino/propanehydrazide] | 25 | 10.7 | viability at 100 µM [4]: 27.7%; viability at 100 µM [5]: 48.4%; LDH release (cytotoxicity) [6]: 72.1%; spheroid morphology and cell viability by AO/PI staining [7]: substantial disruption of spheroid architecture and widespread PI-positive staining
25.4 | C/C(=N/O)c1ccc(N(CCC(=O)NN)c2nc(-c3ccc(Cl)cc3)cs2)cc1 [Compound 26, 3-/[4-(4-Chlorophenyl)thiazol-2-yl]{4-[1-(hydroxyimino)ethyl]phenyl}amino/propanehydrazide] | 30.5 | 13.8 | viability at 100 µM [4]: 67%; viability at 100 µM [5]: 15.4%; LDH release (cytotoxicity) [6]: 89.9%; spheroid morphology and cell viability by AO/PI staining [7]: substantial disruption of spheroid architecture and widespread PI-positive staining
 | CC(=NNc1ccccc1)c1ccc(N(CCC(=O)O)c2nc(-c3ccccc3)cs2)cc1 [Compound 27, 3-/{4-[1-(2-Phenylhydrazineylidene)ethyl]phenyl}(4-phenylthiazol-2-yl)amino/propanoic acid] |  |  | A549 cell viability [1]: 82.4–100%
 | CC(=NNc1ccccc1)c1ccc(N(CCC(=O)O)c2nc(-c3ccc(Cl)cc3)cs2)cc1 [Compound 28, 3-/[4-(4-Chlorophenyl)thiazol-2-yl]{4-[1-(2-phenylhydrazineylidene)ethyl]phenyl}amino/propanoic acid] |  |  | A549 cell viability [1]: 82.4–100%
 | COC(=O)CCN(c1ccc(C(C)=O)cc1)c1nc(-c2ccccc2)cs1 [Compound 29, Methyl 3-[(4-acetylphenyl)(4-phenylthiazol-2-yl)amino]propanoate] | 82.4 to 100 |  | 
 | COC(=O)CCN(c1ccc(C(C)=O)cc1)c1nc(-c2ccc(Cl)cc2)cs1 [Compound 30, Methyl 3-{(4-acetylphenyl)[4-(4-chlorophenyl)thiazol-2-yl]amino}propanoate] | 82.4 to 100 |  | 
 | CC(=NN)c1ccc(N(CCC(=O)NN)c2nc(-c3ccccc3)cs2)cc1 [Compound 31, 3-{[4-(1-Hydrazineylideneethyl)phenyl](4-phenylthiazol-2-yl)amino}propanehydrazide] | 67.1 |  | 
 | CC(=NN)c1ccc(N(CCC(=O)NN)c2nc(-c3ccc(Cl)cc3)cs2)cc1 [Compound 32, 3-{[4-(4-Chlorophenyl)thiazol-2-yl][4-(1-hydrazineylideneethyl)phenyl]amino}propanehydrazide] | 84 |  | 
3.02 | COc1cccc2c1C(=O)c1c(O)c3c(c(O)c1C2=O)C[C@@](O)(C(=O)CO)C[C@@H]3O[C@H]1C[C@H](N)[C@H](O)[C@H](C)O1 [DOX, doxorubicin, reference compound] |  | 3.82 | 
